Counter-ions that a name gives are not always drawn. Like-named read-outs stand apart in the source and are kept apart here.
Experiments:
[1] = biological target: BIR3 domain of human XIAP (residues 252-350) (Homo sapiens (Human), UniProt P98170); assay: XIAP in vitro competitive displacement binding assay (fluorescence polarization); settings: for IC50: read-out: IC50 or PI Xiap: IC50
[2] = biological target: BIR3 domain of human cIAP-1 (residues 267-363) (Homo sapiens (Human), UniProt Q13490); assay: cIAP-1 in vitro competitive displacement binding assay (fluorescence polarization; Probe A AVPIK(5&6FAM)-amide or Probe B AbuRPFK(5&6FAM)-amide)
[3] = Probe A AVPIK(5&6FAM)-amide, read-out: IC50 or PI cIAP1: IC50
[4] = Probe B AbuRPFK(5&6FAM)-amide, read-out: IC50 or PI cIAP1: IC50
[5] = read-out: IC50 or PI cIAP1: IC50

Compound	IC50 [2, 3] [µM]	IC50 [1] [µM]	IC50 [2, 4] [µM]	also measured
C[C@@H]1CN(CC(=O)N2CC(C)(C)c3ccccc32)CCN1 [Example 21, 1-(3,3-Dimethyl-2,3-dihydro-indol-1-yl)-2-((R)-3-methyl-piperazin-1-yl)-ethanone]	27	–	–	inhibition at 160 µM ([1]; 1 h, @ 160 μM, read-out: IC50 or PI Xiap: PI): 45%
C[C@@H]1CN(CC(=O)N2CC3(CCN(C(=O)OCc4ccccc4)CC3)c3ccc(Cl)cc32)CCN1 [Example 23, Benzyl 6-chloro-1-{2-[(3R)-3-methyl-piperazin-1-yl]acetyl}-1,2-dihydro-spiro[indole-3,4′-piperidine]-1′-carboxylate hydrochloride salt]	11	18	–	–
C[C@@H]1CN(CC(=O)N2CCc3cc(F)c(-c4ccccc4)cc32)CCN1 [Example 24, 1-(5-Fluoro-6-phenyl-2,3-dihydro-indol-1-yl)-2-((R)-3-methyl-piperazin-1-yl)-ethanone hydrochloride salt]	2	7.4	–	IC50 [2]: < 10 µM
CNS(=O)(=O)c1cc2c(cc1Br)CCN2C(=O)CN1CCN[C@H](C)C1 [Example 25, 5-Bromo-1-[2-((R)-3-methyl-piperazin-1-yl)-acetyl]-2,3-dihydro-1H-indole-6-sulfonic acid methylamide hydrochloride salt]	60	1.6	61	–
C[C@@H]1CN(CC(=O)N2CCc3cc(Br)c(S(=O)(=O)N(C)C)cc32)CCN1 [Example 26, 5-Bromo-1-[2-((R)-3-methyl-piperazin-1-yl)-acetyl]-2,3-dihydro-1H-indole-6-sulfonic acid dimethylamide hydrochloride salt]	27	2.4	–	–
CNS(=O)(=O)c1ccc2c(c1)N(C(=O)CN1CCN[C@H](C)C1)CC2 [Example 27, 1-[2-((R)-3-Methyl-piperazin-1-yl)-acetyl]-2,3-dihydro-1H-indole-6-sulfonic acid methylamide]	59	2.5	–	–
C[C@@H]1CN(CC(=O)N2CCc3ccc(OC(F)(F)F)cc32)CCN1 [Example 28, 2-((R)-3-Methyl-piperazin-1-yl)-1-(6-trifluoromethoxy-2,3-dihydro-indol-1-yl)-ethanone hydrochloride salt]	42	17	–	–
CC(=O)N1CCC2(CC1)CN(C(=O)CN1CCN[C@H](C)C1)c1cc(Cl)ccc12 [Example 31, 1-{1′-Acetyl-6-chloro-1,2-dihydrospiro[indole-3,4′-piperidine]-1-yl}-2-[(3R)-3-methylpiperazin-1-yl]ethan-1-one hydrochloride salt]	–	–	–	inhibition at 49 µM ([1]; 1 h, @ 49 μM, read-out: IC50 or PI Xiap: PI): 51%; inhibition at 49 µM ([2]; 3 h, Probe A, @ 49 μM, read-out: IC50 or PI cIAP1: PI): 62%
C[C@@H]1CN(CC(=O)N2CCc3ccc(S(=O)(=O)N(C)C)cc32)CCN1 [Example 32, 1-[2-((R)-3-Methyl-piperazin-1-yl)-acetyl]-2,3-dihydro-1H-indole-6-sulfonic acid dimethylamide]	57	2.6	–	–
C[C@@H]1CN(CC(=O)N2CCc3ccc(S(=O)(=O)c4ccccc4)cc32)CCN1 [Example 33, 1-(6-Benzene-sulfonyl-2,3-dihydro-indol-1-yl)-2-((R)-3-methyl-piperazin-1-yl)-ethanone hydrochloride salt]	3.8	1.2	–	IC50 [2]: < 10 µM
C[C@@H]1CN(CC(=O)N2CCc3cccnc32)CCN1 [Example 36, 1-(2,3-Dihydro-pyrrolo[2,3-b]pyridin-1-yl)-2-((R)-3-methyl-piperazin-1-yl)-ethanone dihydrochloride salt]	–	240	–	inhibition at 500 µM ([2]; 3 h, read-out: IC50 or PI cIAP1: PI): 56%
C[C@@H]1CN(CC(=O)N2CCc3ccc(S(=O)(=O)N4CCCC4)cc32)CCN1 [Example 37, 2-((R)-3-Methyl-piperazin-1-yl)-1-[6-(pyrrolidine-1-sulfonyl)-2,3-dihydro-indol-1-yl]-ethanone hydrochloride salt]	23	1.8	–	–
C[C@@H]1CN(CC(=O)N2CCc3cnc(-c4cc(Cl)ccc4F)cc32)CCN1 [Example 38, 1-[6-(5-Chloro-2-fluoro-phenyl)-2,3-dihydro-pyrrolo[3,2-c]pyridin-1-yl]-2-((R)-3-methyl-piperazin-1-yl)-ethanone hydrochloride salt]	2.1	5.5	–	IC50 [2]: < 10 µM
C[C@@H]1CN(CC(=O)N2CC(C)(C)c3c(Cl)cc(Cl)cc32)CCN1 [Example 46, 1-(4,6-Dichloro-3,3-dimethyl-2,3-dihydro-indol-1-yl)-2-((R)-3-methyl-piperazin-1-yl)-ethanone hydrochloride salt]	–	9	4.8	–
C[C@@H]1CN(CC(=O)N2CC3(CCCC3)c3ccc(Cl)cc32)CCN1 [Example 50, 1-{6′-Chloro-1′,2′-dihydrospiro[cyclopentane-1,3′-indole]-1′-yl}-2-[(3R)-3-methyl-piperazin-1-yl]ethan-1-one hydrochloride salt]	–	14	15	–
CCS(=O)(=O)c1cc2c(cc1F)C(C)(C)CN2C(=O)CN1CCN[C@H](C)C1 [Example 51, 1-(6-Ethanesulfonyl-5-fluoro-3,3-dimethyl-2,3-dihydro-indol-1-yl)-2-((R)-3-methyl-piperazin-1-yl)-ethanone dihydrochloride salt]	–	1.1	–	IC50 [2, 5]: 3.2 µM
CC(C)S(=O)(=O)c1cc2c(cc1F)C(C)(C)CN2C(=O)CN1CCN[C@H](C)C1 [Example 52, 1-[5-Fluoro-3,3-dimethyl-6-(propane-2-sulfonyl)-2,3-dihydro-indol-1-yl]-2-((R)-3-methyl-piperazin-1-yl)-ethanone diydrochloride salt]	–	0.95	2.5	–
C[C@@H]1CN(CC(=O)N2CC3(CC3)c3ccc(Cl)cc32)CCN1 [Example 53, 1-{6′-Chloro-1′,2′-dihydrospiro[cyclopropane-1,3′-indole]-1′-yl}-2-[(3R)-3-methyl-piperazin-1-yl]ethan-1-one hydrochloride salt]	–	9.7	9.8	–
CNC(=O)[C@H]1CN[C@H](C)CN1CC(=O)N1CC(C)(C)c2ccc(Cl)cc21 [Example 54, (2R,5R)-1-[2-(6-Chloro-3,3-dimethyl-2,3-dihydro-indol-1-yl)-2-oxo-ethyl]-5-methyl-piperazine-2-carboxylic acid methylamide hydrochloride salt]	–	1.8	2.1	–
C[C@@H]1CN(CC(=O)N2CC3(CCC3)c3ccc(Cl)cc32)CCN1 [Example 55, 1-{6′-Chloro-1′,2′-dihydrospiro[cyclobutane-1,3′-indole]-1′-yl}-2-[(3R)-3-methyl-piperazin-1-yl]ethan-1-one hydrochloride salt]	–	12	8.2	–
C[C@@H]1CN(CC(=O)N2CC(C)(C)c3cc(F)c(S(=O)(=O)C4CC4)cc32)CCN1 [Example 57, 1-(6-Cyclopropane-sulfonyl-5-fluoro-3,3-dimethyl-2,3-dihydro-indol-1-yl)-2-((R)-3-methyl-piperazin-1-yl)-ethanone dihydrochloride salt]	–	0.81	–	IC50 [2, 5]: 2 µM
COC[C@H]1CN[C@H](C)CN1CC(=O)N1CC(C)(C)c2cc(OC)ncc21 [Example 65, 1-(5-Methoxy-3,3-dimethyl-2,3-dihydro-pyrrolo[2,3-c]pyridin-1-yl)-2-((2R,5R)-2-methoxymethyl-5-methyl-piperazin-1-yl)-ethanone hydrochloride salt]	–	6	1.3	–
COC[C@H]1CN[C@H](C)CN1CC(=O)N1CC(C)(C)c2cc(=O)n(C)cc21 [Example 66, 1-[2-((2R,5R)-2-Methoxymethyl-5-methyl-piperazin-1-yl)-acetyl]-3,3,6-trimethyl-1,2,3,6-tetrahydro-pyrrolo[2,3-c]pyridin-5-one hydrochloride salt]	–	–	–	inhibition at 10 µM ([1]; 1 h, @ 10 μM, read-out: IC50 or PI Xiap: PI): 44%; inhibition at 3 µM ([2]; 3 h, Probe B, @ 3 μM, read-out: IC50 or PI cIAP1: PI): 53%
COC[C@H]1CN[C@H](C)CN1CC(=O)N1CC(C)(C)c2cc(=O)n(CC(C)C)cc21 [Example 73, 6-Isobutyl-1-[2-((2R,5R)-2-methoxy-methyl-5-methyl-piperazin-1-yl)-acetyl]-3,3-dimethyl-1,2,3,6-tetrahydro-pyrrolo[2,3-c]pyridin-5-one hydrochloride salt]	–	–	–	inhibition at 3 µM ([1]; 1 h, @ 3 μM, read-out: IC50 or PI Xiap: PI): 46%; inhibition at 1 µM ([2]; 3 h, Probe B, @ 1 μM, read-out: IC50 or PI cIAP1: PI): 60%
COC[C@H]1CN[C@H](C)CN1CC(=O)N1CC(C)(C)c2cnc(Nc3ccccc3)cc21 [Example 81, 1-(3,3-Dimethyl-6-phenylamino-2,3-dihydro-pyrrolo[3,2-c]pyridin-1-yl)-2-((2R,5R)-2-methoxymethyl-5-methyl-piperazin-1-yl)-ethanone hydrochloride salt]	–	–	–	inhibition at 300 µM ([1]; 1 h, @ 300 μM, read-out: IC50 or PI Xiap: PI): 51%; inhibition at 100 µM ([2]; 3 h, Probe B, @ 100 μM, read-out: IC50 or PI cIAP1: PI): 36%
COC[C@H]1CN[C@H](C)CN1CC(=O)N1CC(C)(C)c2cnc(N(C)c3ccccc3)cc21 [Example 84, 1-[3,3-Dimethyl-6-(methyl-phenyl-amino)-2,3-dihydro-pyrrolo[3,2-c]pyridin-1-yl]-2-((2R,5R)-2-methoxymethyl-5-methyl-piperazin-1-yl)-ethanone hydrochloride salt]	–	8.8	1.3	IC50 [2]: < 10 µM
C[C@@H]1CN(CC(=O)N2CCc3ccccc32)CCN1 [Example 85, 1-(2,3-Dihydro-1H-indol-1-yl)-2-[(3R)-3-methylpiperazin-1-yl]ethan-1-one, hydrochloride salt]	–	–	–	inhibition at 500 µM ([1]; 1 h, @ 500 μM, read-out: IC50 or PI Xiap: PI): 52%; inhibition at 250 µM ([2]; 3 h, Probe A, @ 250 μM, read-out: IC50 or PI cIAP1: PI): 45%

Reference: US9018214B2, “Bicyclic heterocycle compounds and their uses in therapy” (Astex Therapeutics Limited, priority 2011, dated 2015)
